In patent publication US7842721B2, “Composition for treating cancer cells and synthetic method for the same” (Kaohsiung Medical University, priority 2007, dated 2010):
In brackets after ≈: the same amount, converted by molar mass.

Tests used:
human cancer cell lines = test: in vitro cytotoxic activities against several human cancer lines (panel summary); type: cell-based; details: for cytotoxic activity against cancer cell lines (in words): especially Hep3B and MDA-MB-231
Protocol: (§1) Human liver (HepG2 and Hep3B), breast (MCF-7 and MDA-MB-231), and lung (A549) cancer cell lines were propagated in RPMI-1640 medium supplement with 10% (v/v) FBS, 100 U/mL penicillin and 100 µg/mL streptomycin at 37° C. in a humidified atmosphere of 5% CO2 and 95% air. The culturing medium is changed every three days. Upon confluency, cells were subcultured to confluency, and used for experiments. The experimental period is determined according to the aim of experiment.
(§2) Cytotoxicity is measured by the MTT calorimetric method. Cells were seeded at densities of 5,000-10,000 cells/well in 96-well tissue culture plates. On day two, cells are treated with test compounds for another 72 hrs. After drug treatment, attached cells were incubated with MTT (0.5 mg/mL) for 1 hr and subsequently solubilized in DMSO. The absorbency at 550 nm is then measured using a microplate reader. The IC50 is the concentration of agent that reduces the cell viability by 50% under the experimental conditions, and the cytotoxic compound, Doxorubicin, is used as a positive control.
It is known that both the protoapigenone compound and its derivatives synthesized by a chemical method have cytotoxic effect against cancer cells, similar to nature protoapigenone compound extracted from a plant.

HepG2 = test: MTT cytotoxicity assay, HepG2; type: cell-based, Human; details: for IC50 HepG2: human liver cancer cells, MTT, 72 hrs treatment
Protocol: as §1, §2

MDA-MB-231 = test: MTT cytotoxicity assay, MDA-MB-231; type: cell-based; details: human breast cancer cells, 72 hrs treatment
Protocol: as §1, §2

A549 = test: MTT cytotoxicity assay, A549; type: cell-based; details: human lung cancer cells, 72 hrs treatment
Protocol: as §1, §2

Hep3B = test: MTT cytotoxicity assay, Hep3B; type: cell-based; details: human liver cancer cells, 72 hrs treatment
Protocol: as §1, §2

MCF-7 = test: MTT cytotoxicity assay, MCF-7; type: cell-based; details: human breast cancer cells, 72 hrs treatment
Protocol: as §1, §2

[1] = system: human cancer cell lines (MCF-7, MDA-MB-231, Hep G2, Hep 3B, A549); details: compound derived from Thelypteris torresiana; Planta Medica 71:867-870, 2005; cited from earlier work

In the case of O=C1C=CC(O)(c2cc(=O)c3ccccc3o2)C=C1 [Compound 8a, 2-(1-hydroxy-4-oxocyclohexa-2,5-dienyl)-4H-chromen-4-one], the “cytotoxic activity against cancer cell lines (in words)” value (shortened to “cytotoxic activity”) (human cancer cell lines) is reported as “significant cytotoxic activity”.
For COC1(c2cc(=O)c3ccccc3o2)C=CC(=O)C=C1 [Compound 8b, 1′-methoxyprotoflavonoen], the “IC50 HepG2” value (HepG2) was 10.95 µg/mL (≈ 40.8 µM), the “IC50 MDA-MB-231” value (MDA-MB-231) was 1.47 µg/mL (≈ 5.48 µM) and the “IC50 A549” value (A549) was greater than 20 µg/mL. For the same compound, the “IC50 Hep3B” value (Hep3B) was 1.45 µg/mL (≈ 5.41 µM) and the “IC50 MCF-7” value (MCF-7) was 2.14 µg/mL (≈ 7.98 µM).
For O=C1C=CC(O)(c2cc(=O)c3c(O)cccc3o2)C=C1 [Compound 10a, 2-(1-hydroxy-4-oxocyclohexa-2,5-dienyl)-5-hydroxy-4H-chromen-4-one], the “cytotoxic activity” value (human cancer cell lines) was “significant cytotoxic activity”.
In the case of COC1(c2cc(=O)c3c(C)cccc3o2)C=CC(=O)C=C1 [Compound 10b, 1′-methoxy-5-methylprotoflavonone], the “IC50 HepG2” value (HepG2) is reported as 7.64 µg/mL (≈ 27.1 µM), the “IC50 MDA-MB-231” value (MDA-MB-231) is reported as 0.54 µg/mL (≈ 1.91 µM) and the “IC50 A549” value (A549) is reported as 16.36 µg/mL (≈ 58 µM). For the same compound, the “IC50 Hep3B” value (Hep3B) was 0.66 µg/mL (≈ 2.34 µM) and the “IC50 MCF-7” value (MCF-7) was 1.55 µg/mL (≈ 5.49 µM).
In the case of O=C1C=CC(O)(c2cc(=O)c3c(ccc4ccccc43)o2)C=C1 [Compound 15a, 3-(1-hydroxy-4-oxocyclohexa-2,5-dienyl)-1H-benzo[f]chromen-1-one], the “cytotoxic activity” value (human cancer cell lines) is reported as “significant cytotoxic activity”.
In the case of COc1cc(O)c2c(=O)cc(C3(O)C=CC(=O)C=C3)oc2c1 [Compound 18a, 5-hydroxy-2-(1-hydroxy-4-oxocyclohexa-2,5-dienyl)-7-methoxy-4H-chromen-4-one], the “cytotoxic activity” value (human cancer cell lines) is reported as “significant cytotoxic activity”, the “potency against all five cancer cell lines, among the derivatives (in words)” value (human cancer cell lines; five cancer cell lines) is reported as “highest potency” and the “activity against the HepG2 human liver cancer cell line (in words)” value (HepG2; compared with most analogs) is reported as “significantly enhanced activity”.
For O=C1C=CC(O)(c2cc(=O)c3c(O)cc(O)cc3o2)C=C1 [protoapigenone], the “cytotoxic activities to human cancer cell lines (in words)” value [1] is listed as “strong cytotoxic activities”.
